USRE48461E1, “Modulation of androgen receptor expression” (Ionis Pharmaceuticals, Inc., priority 2012, dated 2021)
Oligonucleotides are written 5' to 3', each unit as a sugar letter and its base; * is a phosphorothioate linkage, no mark a phosphodiester; rarer units and linkages stand in square brackets, end groups in braces. Plain capitals give the bases only. e = 2'-O-(2-methoxyethyl) (MOE); k = constrained ethyl (cEt); [5mC] = 5-methylcytosine; d = 2'-deoxy (DNA)

Columns and labels:
[1] = system: AR mRNA; experiment: Dose-dependent antisense inhibition of human AR in HuVEC cells (electroporation, qRT-PCR RTS3559, IC50); type: cell-based; settings: HuVEC
Description: (§1) After a treatment period of approximately 16 hours, RNA was isolated from the cells and AR mRNA levels were measured by quantitative real-time PCR. Human AR primer probe set RTS3559 was used to measure mRNA levels. AR mRNA levels were adjusted according to total RNA content, as measured by RIBOGREEN®. […] The antisense oligonucleotides were tested in a series of experiments that had similar culture conditions.
as §1, §1, §1, §1
(§2) After a treatment period of approximately 16 hours, RNA was isolated from the cells and AR mRNA levels were measured by quantitative real-time PCR. Human AR primer probe set RTS3559 was used to measure mRNA levels. AR mRNA levels were adjusted according to total RNA content, as measured by RIBOGREEN®.
as §2

[2] = system: AR mRNA; experiment: Antisense inhibition of human AR in HuVEC cells, single concentration (electroporation, qRT-PCR RTS3559); type: cell-based
Description: Antisense oligonucleotides were designed targeting an AR nucleic acid and were tested for their effects on AR mRNA in vitro. The antisense oligonucleotides were tested in a series of experiments that had similar culture conditions. […] Human primer probe set RTS3559 (forward sequence [NT], designated herein as SEQ ID NO: 9; reverse sequence [NT], designated herein as SEQ ID NO: 10; probe sequence [NT], designated herein as SEQ ID NO: 11) was used to measure mRNA levels. AR mRNA levels were adjusted according to total RNA content, as measured by RIBOGREEN®. […] A total of 155 oligonucleotides were tested. Additional antisense oligonucleotides were designed targeting an AR nucleic acid and were tested for their effects on AR mRNA in vitro. […] Human primer probe set RTS3559 was used to measure mRNA levels. AR mRNA levels were adjusted according to total RNA content, as measured by RIBOGREEN®. […] A total of 82 oligonucleotides were tested. Additional antisense oligonucleotides were designed targeting an AR nucleic acid and were tested for their effects on AR mRNA in vitro. […] Human primer probe set RTS3559 was used to measure mRNA levels. AR mRNA levels were adjusted according to total RNA content, as measured by RIBOGREEN®. […] A total of 40 oligonucleotides were tested. Additional antisense oligonucleotides were designed targeting an AR nucleic acid and were tested for their effects on AR mRNA in vitro. […] Human primer probe set RTS3559 was used to measure mRNA levels. AR mRNA levels were adjusted according to total RNA content, as measured by RIBOGREEN®. […] A total of 75 oligonucleotides were tested. Additional antisense oligonucleotides were designed targeting an AR nucleic acid and were tested for their effects on AR mRNA in vitro. […] Human primer probe set RTS3559 was used to measure mRNA levels. AR mRNA levels were adjusted according to total RNA content, as measured by RIBOGREEN®. […] A total of 616 oligonucleotides were tested. Additional antisense oligonucleotides were designed targeting an AR nucleic acid and were tested for their effects on AR mRNA in vitro. […] Human primer probe set RTS3559 was used to measure mRNA levels. AR mRNA levels were adjusted according to total RNA content, as measured by RIBOGREEN®. […] A total of 385 oligonucleotides were tested.

[3] = Table 32, electroporation, approximately 16 hours
[4] = Table 34, electroporation, approximately 16 hours
[5] = Table 29, electroporation, approximately 16 hours
[6] = 500 nM ASO, electroporation, ~24 h, Table 1

583802 (antisense k[5mC]*kT*k[5mC]*dG*d[5mC]*dT*d[5mC]*dT*d[5mC]*d[5mC]*d[5mC]*dG*d[5mC]*kT*kG*k[5mC]) [compound 583802]
percent inhibition of AR, 46.9 nM [1, 3]: 17%
percent inhibition of AR, 187.5 nM [1, 3]: 25%
percent inhibition of AR, 750.0 nM [1, 3]: 47%
percent inhibition of AR, 3000.0 nM [1, 3]: 60%
IC50 [1, 3]: 1.07 µM
% inhibition ([2]; Table 19, 500 nM oligonucleotide, electroporation, approximately 24 hours, relative to untreated control): 37%

549459 (kA*kT*kG*dG*dT*dT*dG*dA*dT*dT*dT*dA*dA*kT*kG*kG) [compound 549459]
percent inhibition of AR ([1]; 31.25 nM, ~16 h, Table 6): 16%
percent inhibition of AR ([1]; 55.6 nM, ~16 h, Table 4): 61%
percent inhibition of AR ([1]; 62.5 nM, ~16 h, Table 6): 23%
percent inhibition of AR ([1]; 125.0 nM, ~16 h, Table 6): 50%
percent inhibition of AR ([1]; 166.7 nM, ~16 h, Table 4): 90%
percent inhibition of AR ([1]; 500.0 nM, ~16 h, Table 4): 94%
percent inhibition of AR ([1]; 500.0 nM, ~16 h, Table 6): 85%
percent inhibition of AR ([1]; 1000.0 nM, ~16 h, Table 6): 92%
percent inhibition of AR ([1]; 1500.0 nM, ~16 h, Table 4): 97%
IC50 ([1]; ~16 h, Table 4): 0.018 µM
IC50 ([1]; ~16 h, Table 6): 0.1 µM
% inhibition ([2]; 500 nM ASO, electroporation, ~24 h, Table 2): 96%
% inhibition ([2]; 500 nM ASO, ~24 h, Table 5): 92%

583996 (k[5mC]*kG*k[5mC]*d[5mC]*dA*dG*dG*dG*dT*dA*d[5mC]*d[5mC]*dA*k[5mC]*kA*k[5mC]; antisense) [compound 583996]
percent inhibition of AR, 46.9 nM [1, 4]: 26%
percent inhibition of AR, 187.5 nM [1, 4]: 12%
percent inhibition of AR, 750.0 nM [1, 4]: 50%
percent inhibition of AR, 3000.0 nM [1, 4]: 70%
IC50 [1, 4]: 0.71 µM
% inhibition ([2]; Table 22, 500 nM oligonucleotide, electroporation, approximately 24 hours, relative to untreated control): 33%

583635 (antisense k[5mC]*kT*kG*dG*d[5mC]*dT*d[5mC]*d[5mC]*dG*d[5mC]*dA*d[5mC]*dT*k[5mC]*kG*kG) [compound 583635]
percent inhibition of AR, 46.9 nM [1, 5]: 35%
percent inhibition of AR, 187.5 nM [1, 5]: 56%
percent inhibition of AR, 750.0 nM [1, 5]: 69%
percent inhibition of AR, 3000.0 nM [1, 5]: 78%
IC50 [1, 5]: 0.13 µM
% inhibition ([2]; 500 nM ASO, ~24 h, Table 17): 50%

549377 (kA*kG*kG*dA*dT*dG*dA*dG*dG*dA*dA*dG*d[5mC]*kG*kG*k[5mC]; antisense) [compound 549377]
percent inhibition of AR ([1]; 55.6 nM, ~16 h, Table 3): 13%
percent inhibition of AR ([1]; 166.7 nM, ~16 h, Table 3): 52%
percent inhibition of AR ([1]; 500.0 nM, ~16 h, Table 3): 72%
percent inhibition of AR ([1]; 1500.0 nM, ~16 h, Table 3): 93%
IC50 ([1]; ~16 h, Table 3): 0.216 µM
% inhibition [2, 6]: 90%

583933 (k[5mC]*kA*kG*d[5mC]*dG*dG*dG*dT*dT*d[5mC]*dT*d[5mC]*d[5mC]*kA*kG*k[5mC]; antisense) [compound 583933]
percent inhibition of AR, 46.9 nM [1, 4]: 22%
percent inhibition of AR, 187.5 nM [1, 4]: 25%
percent inhibition of AR, 750.0 nM [1, 4]: 56%
percent inhibition of AR, 3000.0 nM [1, 4]: 81%
IC50 [1, 4]: 0.41 µM
% inhibition ([2]; Table 21, 500 nM oligonucleotide, electroporation, approximately 24 hours, relative to untreated control): 38%

585271 (eA*kA*kG*dT*dT*dG*dT*dA*dG*dT*dA*dG*dT*k[5mC]*kG*e[5mC]) [compound 585271]
% inhibition ([2]; 1,000 nM ASO, ~24 h, Table 13): 57%

585268 (kA*eA*kG*eT*dT*dG*dT*dA*dG*dT*dA*dG*eT*k[5mC]*eG*k[5mC]) [compound 585268]
% inhibition ([2]; 1,000 nM ASO, ~24 h, Table 13): 72%

569217 (antisense eG*kT*kT*kG*dA*dT*dT*dT*dA*dA*dT*dG*kG*kT*kT*eG) [compound 569217]
percent inhibition of AR ([1]; 62.5 nM, ~16 h, Table 12): 34%
percent inhibition of AR ([1]; 125.0 nM, ~16 h, Table 12): 39%
percent inhibition of AR ([1]; 500.0 nM, ~16 h, Table 12): 64%
percent inhibition of AR ([1]; 1000.0 nM, ~16 h, Table 12): 64%
IC50 ([1]; ~16 h, Table 12): 0.247 µM

549386 (kG*k[5mC]*kT*dT*d[5mC]*dA*dT*d[5mC]*dT*d[5mC]*d[5mC]*dA*d[5mC]*kA*kG*kA; antisense) [compound 549386]
% inhibition [2, 6]: 77%

579669 (antisense eG*kG*kT*eT*eG*kA*kT*dT*dT*dA*dA*dT*dG*dG*kT*kT) [compound 579669]
percent inhibition of AR ([1]; 62.5 nM, ~16 h, Table 11): 24%
percent inhibition of AR ([1]; 125.0 nM, ~16 h, Table 11): 39%
percent inhibition of AR ([1]; 500.0 nM, ~16 h, Table 11): 74%
percent inhibition of AR ([1]; 1000.0 nM, ~16 h, Table 11): 91%
IC50 ([1]; ~16 h, Table 11): 0.207 µM

585274 (kA*kA*kG*dT*dT*dG*dT*dA*dG*dT*dA*dG*dT*k[5mC]*kG*e[5mC]) [compound 585274]
% inhibition ([2]; 1,000 nM ASO, ~24 h, Table 13): 65%

579670 (antisense eT*kG*kA*eT*kT*kT*dA*dA*dT*dG*dG*dT*dT*kG*k[5mC]*kA) [compound 579670]
percent inhibition of AR ([1]; 62.5 nM, ~16 h, Table 11): 27%
percent inhibition of AR ([1]; 125.0 nM, ~16 h, Table 11): 28%
percent inhibition of AR ([1]; 500.0 nM, ~16 h, Table 11): 75%
percent inhibition of AR ([1]; 1000.0 nM, ~16 h, Table 11): 70%
IC50 ([1]; ~16 h, Table 11): 0.236 µM

579672 (antisense eG*kT*kT*eG*kA*kT*dT*dT*dA*dA*dT*dG*dG*kT*kT*kG) [compound 579672]
percent inhibition of AR ([1]; 62.5 nM, ~16 h, Table 11): 9%
percent inhibition of AR ([1]; 125.0 nM, ~16 h, Table 11): 30%
percent inhibition of AR ([1]; 500.0 nM, ~16 h, Table 11): 72%
percent inhibition of AR ([1]; 1000.0 nM, ~16 h, Table 11): 86%
IC50 ([1]; ~16 h, Table 11): 0.258 µM

585269 (eA*kA*eG*kT*dT*dG*dT*dA*dG*dT*dA*dG*eT*k[5mC]*eG*k[5mC]) [compound 585269]
% inhibition ([2]; 1,000 nM ASO, ~24 h, Table 13): 73%

585259 (eA*kA*kG*kT*dT*dG*dT*dA*dG*dT*dA*dG*dT*k[5mC]*kG*k[5mC]) [compound 585259]
% inhibition ([2]; 1,000 nM ASO, ~24 h, Table 13): 71%

549345 (kT*k[5mC]*kT*dG*dG*dA*dA*d[5mC]*dA*dG*dA*dT*dT*k[5mC]*kT*kG; antisense) [compound 549345]
% inhibition [2, 6]: 82%

585264 (kA*kA*kG*dT*dT*dG*dT*dA*dG*dT*kA*kG*kT*e[5mC]*eG*e[5mC]) [compound 585264]
% inhibition ([2]; 1,000 nM ASO, ~24 h, Table 13): 62%

585233 (kA*kG*kT*dT*dG*dT*dA*dG*dT*dA*dG*kT*e[5mC]*eG*e[5mC]*eG) [compound 585233]
% inhibition ([2]; 1,000 nM ASO, ~24 h, Table 13): 69%

585262 (kA*kA*kG*dT*dT*dG*dT*dA*dG*dT*dA*dG*kT*k[5mC]*kG*e[5mC]) [compound 585262]
% inhibition ([2]; 1,000 nM ASO, ~24 h, Table 13): 77%

569214 (antisense kG*kG*kT*dT*dG*dA*dT*dT*dT*dA*dA*dT*kG*kG*kT*eT) [compound 569214]
percent inhibition of AR ([1]; 62.5 nM, ~16 h, Table 12): 20%
percent inhibition of AR ([1]; 125.0 nM, ~16 h, Table 12): 26%
percent inhibition of AR ([1]; 500.0 nM, ~16 h, Table 12): 62%
percent inhibition of AR ([1]; 1000.0 nM, ~16 h, Table 12): 76%
IC50 ([1]; ~16 h, Table 12): 0.265 µM

585263 (kA*kA*kG*dT*dT*dG*dT*dA*dG*dT*dA*kG*kT*k[5mC]*eG*e[5mC]) [compound 585263]
% inhibition ([2]; 1,000 nM ASO, ~24 h, Table 13): 69%

585265 (eA*eA*kG*kT*dT*dG*dT*dA*dG*dT*dA*dG*kT*k[5mC]*eG*e[5mC]) [compound 585265]
% inhibition ([2]; 1,000 nM ASO, ~24 h, Table 13): 69%
